Where two headings read alike, the source gives them in different places.
Columns and labels:
[1] = test system: H460 cell line with high expression of AKR1C3 enzyme; conditions: cited from earlier work
[2] = test system: H460 cancer cells; experiment: Inhibition of H460 cancer cells in the presence or absence of AKR1C3 inhibitor AST-3021 (section 2.1); format: cell-based, human; conditions: for IC50: Homo sapiens
Experimental: The experimental scheme was as follows: • 1) H460 cell suspension was added to a 96-well plate with 100 μL per well at a cell density of 2000/well. • 2) Cells were incubated in an incubator of 37° C., 5% CO2 overnight. • 3) Compound treatment
Combined administration: 24 hours after cell plating, 98 μL of growth medium per well was added. 1 μL of AST-3021 was added to each well (final concentration 3 μM), and the plate was shaken gently to ensure even mixing, and then placed into an incubator; after 2 hours, 1 μL of the test compound at different concentrations was added, and the plate was shaken gently to ensure even mixing, and then placed into an incubator of 37° C., 5% CO2.
Administration of the drug alone: 24 hours after cell plating, 99 μL of growth medium per well was added.
In order to further verify that the compound was activated specifically by human AKR1C3 (aldosterone reductase family 1 member C3), the compound was added following the pretreatment of cells with the specific AKR1C3 enzyme inhibitor AST-3021 (3 μM), and the effect of the presence of AST-3021 on the proliferation of H460 cancer cells was tested
IC50 data of inhibitory effect of the compounds gemcitabine and H11 on H460 cancer cells in the presence or absence of the AKR1C3 inhibitor AST-3021 is shown in Table 2 and Table 3.

[3] = intraperitoneal injection, once every 3 days, for four consecutive doses; literature; cited from earlier work
[4] = test system: HuPrime pancreatic cancer xenograft model PA1222; experiment: In vivo pharmacodynamic experiment in HuPrime pancreatic cancer PA1222 PDX model; conditions: for Tumor volume (mm^3) (x ± S): Group 2, 80 mg/kg i.p.
[5] = Plasma stability in rat plasma; conditions: for Remaining percentage (%): rat plasma
Experimental: 1 mM working solution of the test compound was prepared in DMSO. 1 mM working solution of propantheline was prepared in acetonitrile. 1 mM working solution of lovastatin (mevinolin) was prepared in DMSO. Propantheline was used as a positive control for human, monkey, dog, and mouse plasma stability tests. Lovastatin was a positive control for rat plasma stability test.
• A. 398 μL of plasma per well was added to the culture plate, and the plate was preheated at 37° C. for 15 minutes. • B. After preincubation, 2 μL of working solution (test solution or control solution) was added to the 398 μL plasma mentioned above, resulting in a final concentration of 5 μM. The final concentration of organic solvents was 0.5%. The test was conducted in duplicate. • C. The reaction sample was incubated at 37° C. • D. 50 μL was extracted from the reaction sample at 0, 15, 30, 60, and 120 minutes, respectively. […] 100 μL of supernatant was taken and transferred to a new plate. The supernatant was diluted with ultrapure water according to the LC-MS signal response and peak shape.
Samples were analyzed with LC-MS/MS. All calculations were conducted using Microsoft Excel. The peak area ratio was determined from the extracted ion chromatogram. • (1) The percentage of the remaining compound at each time point was calculated with the following formula: […]
wherein the slope value k was determined by linear regression of the natural logarithm of the remaining percentage of the parent drug vs. incubation time curve.

[6] = Plasma stability in human plasma; format: in vitro ADME
Experimental: (§1) The final concentration of organic solvents was 0.5%. The test was conducted in duplicate. • C.
(§2) Samples were analyzed with LC-MS/MS. All calculations were conducted using Microsoft Excel.

[7] = Plasma stability in monkey plasma; format: in vitro ADME
Experimental: as §1, §2

[8] = Plasma stability in dog plasma; format: in vitro ADME
Experimental: as §1, §2

[9] = Plasma stability in mouse plasma; format: in vitro ADME
Experimental: as §1, §2

[10] = Group 2, 80 mg/kg i.p. Q3D×4, Day 32

Compound: CCN(CCCCBr)P(=O)(OCc1ccc([N+](=O)[O-])c(Oc2ccc(-c3ccccc3)cc2)c1)OCC1OC(n2ccc(N)nc2=O)C(F)(F)C1O (stereo not drawn) [TH3057]
- IC50 ([1]; with addition of AKR1C3 enzyme inhibitor): 5000 nM
- IC50 ([1]; without AKR1C3 enzyme inhibitor): 200 nM

Compound: Nc1ccn([C@@H]2O[C@H](CO)[C@@H](O)C2(F)F)c(=O)n1 [gemcitabine]
- Specific activation ratio ([2]; H460): 1.08
- IC50 ([2]; NCI-H460, 72 h, H460, 72 hours, read-out: IC50 (nmol/L) AST-3021 not added): 13.2 nmol/L
- IC50 ([2]; NCI-H460, H460, AST-3021 3 μM, read-out: IC50 (nmol/L) AST-3021 added): 14.2 nmol/L
- MTD [3]: 120 mg/kg
- Relative tumor volume (x ± S) [4, 10]: 0.06 ± 0.04
- T/C (%) [4, 10]: 0.97%
- TGI (%) [4, 10]: 99.03%
- complete tumor inhibition rate [4, 10]: 60%
- Tumor volume (x ± S) ([4]; Group 2, 80 mg/kg i.p. Q3D×4, Day 32, mean ± standard error): 6.79 ± 4.33
- Tumor volume (mm^3) (x ± S) ([4]; day 0): 102.95 mm^3
- Tumor volume (mm^3) (x ± S) ([4]; day 4): 104.07 mm^3
- Tumor volume (mm^3) (x ± S) ([4]; day 7): 74.43 mm^3
- Tumor volume (mm^3) (x ± S) ([4]; day 11): 38.92 mm^3
- Tumor volume (mm^3) (x ± S) ([4]; day 14): 24.66 mm^3
- Tumor volume (mm^3) (x ± S) ([4]; day 18): 17.66 mm^3
- Tumor volume (mm^3) (x ± S) ([4]; day 21): 12.13 mm^3
- Tumor volume (mm^3) (x ± S) ([4]; day 25): 10.23 mm^3
- Tumor volume (mm^3) (x ± S) ([4]; day 28): 7.97 mm^3
- Tumor volume (mm^3) (x ± S) ([4]; day 32): 6.79 mm^3

Compound: CC[C@H](C)C(=O)O[C@H]1C[C@@H](C)C=C2C=C[C@H](C)[C@H](CC[C@@H]3C[C@@H](O)CC(=O)O3)[C@H]21 [lovastatin, reference compound]
- Remaining percentage (%) ([5]; 0 min, 5 μM, 37° C.): 100.00%
- Remaining percentage (%) ([5]; 15 min): 5.27%
- Remaining percentage (%) ([5]; 30 min): 0.52%
- Remaining percentage (%) ([5]; 60 min): 0.45%
- Remaining percentage (%) ([5]; 120 min): 0.34%
- t1/2 ([5]; rat, plasma): 3.53 min

Compound: CC(C)[N+](C)(CCOC(=O)C1c2ccccc2Oc2ccccc21)C(C)C [propantheline, reference compound]
- Remaining percentage (%) ([6]; 0 min, 5 μM, 37° C.): 100.00%
- Remaining percentage (%) ([6]; 15 min): 81.24%
- Remaining percentage (%) ([6]; 30 min): 59.99%
- Remaining percentage (%) ([6]; 60 min): 32.76%
- Remaining percentage (%) ([6]; 120 min): 7.75%
- half-life at 5 µM ([6]; human): 36.6 min
- Remaining percentage (%) ([7]; 0 min, 5 μM, 37° C.): 100.00%
- Remaining percentage (%) ([7]; 15 min): 90.53%
- Remaining percentage (%) ([7]; 30 min): 77.57%
- Remaining percentage (%) ([7]; 60 min): 70.39%
- Remaining percentage (%) ([7]; 120 min): 49.22%
- half-life at 5 µM ([7]; monkey): 121 min
- Remaining percentage (%) ([8]; 0 min, 5 μM, 37° C.): 100.00%
- Remaining percentage (%) ([8]; 15 min): 101.04%
- Remaining percentage (%) ([8]; 30 min): 87.98%
- Remaining percentage (%) ([8]; 60 min): 85.64%
- Remaining percentage (%) ([8]; 120 min): 66.64%
- half-life at 5 µM ([8]; dog): 203 min
- half-life at 5 µM [9]: 21.8 min
- Remaining percentage (%) ([9]; 0 min, 5 μM, 37° C.): 100.00%
- Remaining percentage (%) ([9]; 15 min): 69.89%
- Remaining percentage (%) ([9]; 30 min): 43.11%
- Remaining percentage (%) ([9]; 60 min): 15.28%
- Remaining percentage (%) ([9]; 120 min): 2.03%
